Experimental data: patent US10336729B2, “4-cyano-benzyl carbamimidoylcarbamate derivatives and their use as AOC3 inhibitors” (Boehringer Ingelheim International GmbH, priority 2016, dated 2019)

These molecules were tested against AOC3 (Homo sapiens (Human), UniProt Q16853) (assay: MAO-Glo AOC3 assay). Conditions: recombinant CHO cells overexpressing AOC3 enzyme.
Format: biochemical
Description: The MAO-Glo™ Assay (commercial available from PROMEGA, #V1402) provides a sensitive method for the measurement of monoamine oxidase (MAO) activity (Valley, M. P. et al., 2006, Anal. Biochem. 359: 238-246) from a variety of tissues, biofluids or recombinant expressed or purified enzymes. As substrate a derivate of the beetle luciferin ((4S)-4,5-dihydro-2-(6-hydroxybenzothiazolyl)-4-thiazole-carboxylic acid) is used, which is oxidized at a primary amine moiety. After a spontaneous elimination and a catalyzed esterase reaction, the turnover of the luciferine by the luciferase is recorded as a signal of AOC3 activity.
An aliquot of 3 μL of the compound dilution is added to a 384 well plate (Optiplate, PS, flat bottom, white, PERKIN ELMER, #6007290) with a final DMSO concentration of 6.6%. Recombinant CHO cells, overexpressing the human (1500 cells/well), mouse (1000 cells/well) or rat (500 cells/well) AOC3 enzyme are diluted in reaction buffer and added in a volume of 15 μL to the wells. After incubation for 20 minutes at 37° C., 2 μL of MAO substrate (dissolved in DMSO at 16 mM, adjusted to assay concentration in reaction buffer to a final assay concentration of 20 μM) is added and further incubated for 60 minutes at 37° C. The turnover of the substrate is determined by the addition of 20 μL of the detection-mix which was generated by the addition of reconstitution buffer with esterase (PROMEGA, #V1402) to the luciferine detection reagent (PROMEGA, #V1402). After an incubation period of 20 minutes, the luminescent signal is measured with Envision 2104 Multilabel Reader (PERKIN ELMER).

Chain of AOC3 (Q16853 whole entry): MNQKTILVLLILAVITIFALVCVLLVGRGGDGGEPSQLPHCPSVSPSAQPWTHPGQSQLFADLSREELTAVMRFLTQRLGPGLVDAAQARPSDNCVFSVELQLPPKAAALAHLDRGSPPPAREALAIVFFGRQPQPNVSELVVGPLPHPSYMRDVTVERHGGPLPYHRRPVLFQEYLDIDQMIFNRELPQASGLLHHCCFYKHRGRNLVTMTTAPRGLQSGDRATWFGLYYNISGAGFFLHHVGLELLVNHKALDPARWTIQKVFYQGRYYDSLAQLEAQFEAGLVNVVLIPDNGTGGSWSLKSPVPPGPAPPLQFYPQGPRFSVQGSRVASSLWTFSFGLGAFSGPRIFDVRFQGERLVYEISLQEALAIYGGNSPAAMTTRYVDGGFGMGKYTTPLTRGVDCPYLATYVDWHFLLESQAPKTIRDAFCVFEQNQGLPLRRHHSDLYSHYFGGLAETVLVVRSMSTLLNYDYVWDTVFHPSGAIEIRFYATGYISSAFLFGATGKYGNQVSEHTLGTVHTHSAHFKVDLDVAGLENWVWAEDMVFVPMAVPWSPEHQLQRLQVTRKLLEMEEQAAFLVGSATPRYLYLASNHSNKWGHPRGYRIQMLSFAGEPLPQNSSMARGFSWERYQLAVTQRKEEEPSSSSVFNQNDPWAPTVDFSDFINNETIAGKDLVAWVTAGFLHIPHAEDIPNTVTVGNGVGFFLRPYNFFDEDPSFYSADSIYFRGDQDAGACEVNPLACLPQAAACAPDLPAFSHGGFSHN

| Structure (SMILES) | IC50 [nM] |
| --- | --- |
| Cc1cnc(C2=CCN(c3c(C#N)ccc(COC(=O)NC(=N)N)c3F)CC2)nc1 [Example 1.075] | 85 |
| N#Cc1ccc(COC(=O)NC(=N)N)c(F)c1N1CCC(c2cccc(Cl)c2)CC1 [Example 1.076] | 56 |
| N#Cc1ccc(COC(=O)NC(=N)N)c(F)c1N1C2CCC1CC(c1ccccc1)C2 (stereo not shown) [Example 1.077] | 293 |
| N#Cc1ccc(COC(=O)NC(=N)N)c(F)c1N1CCN(c2ccc(Cl)cn2)CC1 [Example 1.078] | 7 |
| N#Cc1ccc(COC(=O)NC(=N)N)c(F)c1N1CCC(C2CCN(S(N)(=O)=O)CC2)CC1 [Example 1.079] | 9 |
| CCOc1ccc(C2CCN(c3c(C#N)ccc(COC(=O)NC(=N)N)c3F)CC2)cn1 [Example 1.080] | 20 |
| N#Cc1ccc(COC(=O)NC(=N)N)c(F)c1N1CCN(c2ncccn2)CC1 [Example 1.081] | 45 |
| N#Cc1ccc(COC(=O)NC(=N)N)c(F)c1N1CCN(c2ncncn2)CC1 [Example 1.082] | 57 |
| N#Cc1ccc(COC(=O)NC(=N)N)c(F)c1N1CCN(c2cccnn2)CC1 [Example 1.083] | 34 |
| N#Cc1ccc(COC(=O)NC(=N)N)c(F)c1N1CCC(c2ccc(C(F)(F)F)cc2)CC1 [Example 1.084] | 502 |
| N#Cc1ccc(COC(=O)NC(=N)N)c(F)c1N1CCC(O)(c2ccccc2)CC1 [Example 1.085] | 280 |
| Cc1ccc(N2CCN(c3c(C#N)ccc(COC(=O)NC(=N)N)c3F)CC2)cc1C [Example 1.086] | 149 |
| N#Cc1ccc(COC(=O)NC(=N)N)c(F)c1N1CC(c2ccccn2)C1 [Example 1.087] | 470 |
| N#Cc1ccc(COC(=O)NC(=N)N)c(F)c1N1CCC(N2CCCC2=O)CC1 [Example 1.088] | 889 |
| N#Cc1ccc(COC(=O)NC(=N)N)c(F)c1N1CCC(N2CCC(O)CC2)CC1 [Example 1.089] | 56 |
| N#Cc1ccc(COC(=O)NC(=N)N)c(F)c1N1CCC(C#N)(c2ccccc2)CC1 [Example 2.001] | 166 |
| N#Cc1ccc(COC(=O)NC(=N)N)c(F)c1N1CCC2(CC1)CC(=O)Nc1ncccc12 [Example 2.002] | 93 |
| N#Cc1ccc(COC(=O)NC(=N)N)c(F)c1N1CCN(c2ccncc2)CC1 [Example 2.003] | 7 |
| Cc1cc(N2CCN(c3c(C#N)ccc(COC(=O)NC(=N)N)c3F)CC2)ccn1 [Example 2.004] | 3 |
| Cc1cnc(C2CCN(c3c(C#N)ccc(COC(=O)NC(=N)N)c3F)CC2)o1 [Example 2.005] | 20 |
| N#Cc1ccc(COC(=O)NC(=N)N)c(F)c1N1CCC(c2nnco2)CC1 [Example 2.006] | 33 |
| N#Cc1ccc(N2CCN(c3cc(COC(=O)NC(=N)N)c(F)cc3C#N)CC2)cc1 [Example 3.001] | 393 |
